# Data reported in ChEMBL document CHEMBL1143794, “Discovery of [7-(2,6-dichlorophenyl)-5-methylbenzo [1,2,4]triazin-3-yl]-[4-(2-pyrrolidin-1-ylethoxy)phenyl]amine--a potent, orally active Src kinase inhibitor with anti-tumor activity in preclinical assays” (Bioorg Med Chem Lett, 2007).
# Columns and labels:
# [1] = biological target: Proto-oncogene tyrosine-protein kinase Src (Homo sapiens, UniProt P12931)
# CT26 [2] = experiment: Antitumor activity against mouse CT26 cells; assay type: functional, cell-based
# K562 = experiment: Antitumor activity against K562 cells; assay type: functional, cell-based; details: Homo sapiens
# Cytochrome P450 3A4 = Cytochrome P450 3A4 (Homo sapiens, UniProt P08684); experiment: Inhibition of CYP3A4; assay type: ADME
# Cytochrome P450 3A4, sequence (P08684 whole entry): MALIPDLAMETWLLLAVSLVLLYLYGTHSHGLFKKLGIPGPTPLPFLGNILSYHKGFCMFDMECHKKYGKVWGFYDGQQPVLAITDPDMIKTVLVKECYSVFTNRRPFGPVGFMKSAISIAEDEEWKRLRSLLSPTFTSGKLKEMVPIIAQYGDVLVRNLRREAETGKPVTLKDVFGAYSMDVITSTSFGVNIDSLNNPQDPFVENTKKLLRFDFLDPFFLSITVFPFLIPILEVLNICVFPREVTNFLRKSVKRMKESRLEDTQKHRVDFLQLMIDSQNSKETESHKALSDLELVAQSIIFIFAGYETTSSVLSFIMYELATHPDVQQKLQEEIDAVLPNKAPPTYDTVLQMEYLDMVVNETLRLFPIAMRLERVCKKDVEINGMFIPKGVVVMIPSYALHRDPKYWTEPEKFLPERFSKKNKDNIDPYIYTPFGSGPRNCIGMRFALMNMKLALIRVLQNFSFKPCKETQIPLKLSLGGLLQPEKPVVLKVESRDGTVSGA
# Canis familiaris [3] = experiment: AUC in dog at 25 mg/kg, po; assay type: ADME, organism-based, Canis lupus familiaris, Plasma; design: dose 25 mg/kg, route oral; details: in vivo
# [4] = Bioavailability in dog at 25 mg/kg, po; assay type: ADME, organism-based, Canis lupus familiaris; details: in vivo
# Cytochrome P450 1A2 = biological target: T1, Cytochrome P450 1A2 (Homo sapiens, UniProt P05177); experiment: Inhibition of CYP1A2; assay type: ADME
# T1 sequence (P05177 whole entry): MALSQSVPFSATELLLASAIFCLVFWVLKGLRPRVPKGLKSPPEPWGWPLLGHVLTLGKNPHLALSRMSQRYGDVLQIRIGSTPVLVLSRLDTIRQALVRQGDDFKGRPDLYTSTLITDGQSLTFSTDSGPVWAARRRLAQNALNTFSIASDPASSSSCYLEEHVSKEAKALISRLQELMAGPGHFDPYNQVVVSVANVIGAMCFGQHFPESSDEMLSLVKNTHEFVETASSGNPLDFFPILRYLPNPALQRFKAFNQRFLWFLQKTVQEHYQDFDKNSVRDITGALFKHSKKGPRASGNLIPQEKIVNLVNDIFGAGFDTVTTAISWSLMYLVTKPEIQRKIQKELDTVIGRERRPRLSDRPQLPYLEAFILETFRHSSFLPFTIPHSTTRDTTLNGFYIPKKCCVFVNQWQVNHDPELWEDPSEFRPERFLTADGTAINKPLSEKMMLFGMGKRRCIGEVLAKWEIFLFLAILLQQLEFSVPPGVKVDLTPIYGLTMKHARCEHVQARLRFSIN
# [5] = Tmax in dog at 25 mg/kg, po; assay type: ADME, organism-based, Canis lupus familiaris; design: dose 25 mg/kg, route oral; details: in vivo
# Cytochrome P450 2C19 = Cytochrome P450 2C19 (Homo sapiens, UniProt P33261); experiment: Inhibition of CYP2C19; assay type: ADME
# Cytochrome P450 2C19, sequence (P33261 whole entry): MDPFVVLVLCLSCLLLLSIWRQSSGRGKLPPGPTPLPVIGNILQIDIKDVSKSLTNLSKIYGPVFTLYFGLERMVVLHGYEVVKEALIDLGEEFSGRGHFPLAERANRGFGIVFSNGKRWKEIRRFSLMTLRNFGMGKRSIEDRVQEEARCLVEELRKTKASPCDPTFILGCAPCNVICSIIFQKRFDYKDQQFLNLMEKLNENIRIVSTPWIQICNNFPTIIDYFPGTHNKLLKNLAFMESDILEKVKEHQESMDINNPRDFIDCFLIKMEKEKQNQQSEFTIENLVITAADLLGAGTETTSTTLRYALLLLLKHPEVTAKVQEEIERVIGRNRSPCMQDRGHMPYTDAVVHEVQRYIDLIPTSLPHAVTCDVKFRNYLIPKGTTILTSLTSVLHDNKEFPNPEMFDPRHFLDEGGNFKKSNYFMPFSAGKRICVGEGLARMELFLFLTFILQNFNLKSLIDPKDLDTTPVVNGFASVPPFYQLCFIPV
# [6] = Bioavailability in rat at 25 mg/kg, po; assay type: ADME, organism-based; details: in vivo
# Cytochrome P450 2C9 = Cytochrome P450 2C9 (Homo sapiens, UniProt P11712); experiment: Inhibition of CYP2C9; assay type: ADME
# Cytochrome P450 2C9, sequence (P11712 whole entry): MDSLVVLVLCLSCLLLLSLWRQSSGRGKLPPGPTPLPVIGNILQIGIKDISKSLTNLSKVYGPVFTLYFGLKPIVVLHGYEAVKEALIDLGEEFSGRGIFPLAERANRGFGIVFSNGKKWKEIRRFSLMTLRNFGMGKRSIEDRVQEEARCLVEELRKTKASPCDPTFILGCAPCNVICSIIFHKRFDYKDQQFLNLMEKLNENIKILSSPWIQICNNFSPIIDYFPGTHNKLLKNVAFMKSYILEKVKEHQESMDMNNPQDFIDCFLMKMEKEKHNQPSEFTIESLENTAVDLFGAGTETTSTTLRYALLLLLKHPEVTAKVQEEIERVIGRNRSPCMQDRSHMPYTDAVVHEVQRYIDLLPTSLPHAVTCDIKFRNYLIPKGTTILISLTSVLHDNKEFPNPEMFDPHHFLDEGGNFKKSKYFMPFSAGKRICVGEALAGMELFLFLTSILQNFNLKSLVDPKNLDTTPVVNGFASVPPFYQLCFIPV
# Mus musculus [7] = experiment: Volume of distribution in mouse at 25 mg/kg, po; assay type: ADME, organism-based; design: dose 25 mg/kg, route oral; details: in vivo
# [8] = Tmax in mouse at 25 mg/kg, po; assay type: ADME, organism-based; design: dose 25 mg/kg, route oral; details: in vivo
# [9] = Tmax in rat at 25 mg/kg, po; assay type: ADME, organism-based; design: dose 25 mg/kg, route oral; details: in vivo
# Cytochrome P450 2D6 = Cytochrome P450 2D6 (Homo sapiens, UniProt P10635); experiment: Inhibition of CYP2D6; assay type: ADME
# Cytochrome P450 2D6, sequence (P10635 whole entry): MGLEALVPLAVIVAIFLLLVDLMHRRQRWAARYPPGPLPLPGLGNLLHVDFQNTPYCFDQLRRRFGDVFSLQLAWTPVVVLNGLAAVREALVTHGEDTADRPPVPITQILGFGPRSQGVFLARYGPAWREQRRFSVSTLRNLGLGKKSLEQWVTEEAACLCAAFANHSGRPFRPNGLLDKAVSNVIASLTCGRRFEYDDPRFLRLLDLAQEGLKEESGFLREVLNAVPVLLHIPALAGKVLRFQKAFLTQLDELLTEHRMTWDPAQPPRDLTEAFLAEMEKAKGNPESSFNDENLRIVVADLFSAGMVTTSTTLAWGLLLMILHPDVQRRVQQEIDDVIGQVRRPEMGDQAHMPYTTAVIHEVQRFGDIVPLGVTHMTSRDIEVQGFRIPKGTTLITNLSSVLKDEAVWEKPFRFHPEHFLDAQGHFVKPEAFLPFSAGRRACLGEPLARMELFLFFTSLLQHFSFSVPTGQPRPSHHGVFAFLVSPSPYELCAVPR
# COLO 205 = experiment: Antitumor activity against Colo205 cells; assay type: functional, cell-based; details: Homo sapiens
# [10] = Cmax in mouse at 25 mg/kg, po; assay type: ADME, organism-based; design: dose 25 mg/kg, route oral; details: in vivo
# HT-29 = experiment: Antitumor activity against HT29 cells; assay type: functional, cell-based; details: Homo sapiens
# [11] = biological target: Platelet-derived growth factor receptor beta (Homo sapiens, UniProt P09619); experiment: Inhibition of PDGFRbeta
# Platelet-derived growth factor receptor beta, sequence (P09619 whole entry): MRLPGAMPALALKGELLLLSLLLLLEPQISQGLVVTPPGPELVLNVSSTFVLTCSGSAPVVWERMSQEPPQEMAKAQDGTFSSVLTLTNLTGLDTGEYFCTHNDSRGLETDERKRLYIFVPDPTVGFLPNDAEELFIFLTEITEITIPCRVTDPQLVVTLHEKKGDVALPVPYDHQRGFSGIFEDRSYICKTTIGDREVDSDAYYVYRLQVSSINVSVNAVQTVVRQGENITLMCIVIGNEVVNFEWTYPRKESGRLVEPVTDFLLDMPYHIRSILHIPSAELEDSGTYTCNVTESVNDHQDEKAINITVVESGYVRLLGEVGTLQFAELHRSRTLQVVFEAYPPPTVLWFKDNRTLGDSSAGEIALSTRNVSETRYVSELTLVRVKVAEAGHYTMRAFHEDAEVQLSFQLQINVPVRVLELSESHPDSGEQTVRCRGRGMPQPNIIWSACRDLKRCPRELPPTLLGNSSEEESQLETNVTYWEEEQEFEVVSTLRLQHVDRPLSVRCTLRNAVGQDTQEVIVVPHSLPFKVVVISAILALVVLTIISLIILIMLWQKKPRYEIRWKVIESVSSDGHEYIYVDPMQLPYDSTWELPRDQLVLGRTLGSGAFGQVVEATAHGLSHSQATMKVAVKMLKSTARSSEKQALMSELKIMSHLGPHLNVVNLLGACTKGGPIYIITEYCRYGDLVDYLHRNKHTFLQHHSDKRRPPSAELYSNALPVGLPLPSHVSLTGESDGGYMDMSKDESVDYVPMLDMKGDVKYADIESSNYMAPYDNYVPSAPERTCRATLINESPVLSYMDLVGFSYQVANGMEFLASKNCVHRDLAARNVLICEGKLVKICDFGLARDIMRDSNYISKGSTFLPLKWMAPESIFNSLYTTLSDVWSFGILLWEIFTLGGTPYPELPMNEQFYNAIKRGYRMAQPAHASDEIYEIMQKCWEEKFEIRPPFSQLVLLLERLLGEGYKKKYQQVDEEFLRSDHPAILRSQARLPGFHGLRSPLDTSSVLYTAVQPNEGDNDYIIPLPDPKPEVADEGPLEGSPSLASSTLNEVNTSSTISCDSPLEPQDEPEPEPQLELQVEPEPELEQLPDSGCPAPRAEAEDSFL
# Canis familiaris [12] = experiment: Volume of distribution in dog at 25 mg/kg, po; assay type: ADME, organism-based, Canis lupus familiaris; design: dose 25 mg/kg, route oral; details: in vivo
# Rattus norvegicus [13] = experiment: AUC in rat at 25 mg/kg, po; assay type: ADME, organism-based, Plasma; design: dose 25 mg/kg, route oral; details: in vivo
# Rattus norvegicus [14] = experiment: Volume of distribution in rat at 25 mg/kg, po; assay type: ADME, organism-based; design: dose 25 mg/kg, route oral; details: in vivo
# [15] = Half life in mouse at 25 mg/kg, po; assay type: ADME, organism-based; design: dose 25 mg/kg, route oral; details: in vivo
# A549 [16] = experiment: Reduction of tumor burden in A549 cells xenografted in nu/nu mouse at 40 mg/kg, ip relative to control; assay type: functional; design: scale not given: the % may be the effect or the level left; details: route intraperitoneal
# [17] = Half life in dog at 25 mg/kg, po; assay type: ADME, organism-based, Canis lupus familiaris; design: dose 25 mg/kg, route oral; details: in vivo
# [18] = Cmax in dog at 25 mg/kg, po; assay type: ADME, organism-based, Canis lupus familiaris; design: dose 25 mg/kg, route oral; details: in vivo
# [19] = Bioavailability in mouse at 25 mg/kg, po; assay type: ADME, organism-based; details: in vivo
# [20] = Cmax in rat at 25 mg/kg, po; assay type: ADME, organism-based; design: dose 25 mg/kg, route oral; details: in vivo
# [21] = Half life in rat at 25 mg/kg, po; assay type: ADME, organism-based; design: dose 25 mg/kg, route oral; details: in vivo
# Mus musculus [22] = experiment: AUC in mouse at 25 mg/kg, po; assay type: ADME, organism-based, Plasma; design: dose 25 mg/kg, route oral; details: in vivo
# MDA-MB-231 = experiment: Antitumor activity against MDA-MB-231 cells; assay type: functional, cell-based; details: Homo sapiens
# MCF7 = experiment: Antitumor activity against MCF7 cells; assay type: functional, cell-based; details: Homo sapiens
# [23] = Clearance in dog at 25 mg/kg, po; assay type: ADME, organism-based, Canis lupus familiaris; design: dose 25 mg/kg, route oral; details: in vivo
# [24] = Clearance in mouse at 25 mg/kg, po; assay type: ADME, organism-based; design: dose 25 mg/kg, route oral; details: in vivo
# CT26 [25] = experiment: Reduction of tumor volume in CT26 xenografted in BALB/c mouse at 50 mg/kg, ip relative to control; assay type: functional; design: scale not given: the % may be the effect or the level left; details: route intraperitoneal
# A549 [26] = experiment: Antitumor activity against A549 cells; assay type: functional, cell-based; details: Homo sapiens
# MOLT-4 = experiment: Antitumor activity against Molt4 cells; assay type: functional, cell-based; details: Homo sapiens
# [27] = Clearance in rat at 25 mg/kg, po; assay type: ADME, organism-based; design: dose 25 mg/kg, route oral; details: in vivo
# Proto-oncogene tyrosine-protein kinase Src, sequence (P12931 2-536 limits assumed): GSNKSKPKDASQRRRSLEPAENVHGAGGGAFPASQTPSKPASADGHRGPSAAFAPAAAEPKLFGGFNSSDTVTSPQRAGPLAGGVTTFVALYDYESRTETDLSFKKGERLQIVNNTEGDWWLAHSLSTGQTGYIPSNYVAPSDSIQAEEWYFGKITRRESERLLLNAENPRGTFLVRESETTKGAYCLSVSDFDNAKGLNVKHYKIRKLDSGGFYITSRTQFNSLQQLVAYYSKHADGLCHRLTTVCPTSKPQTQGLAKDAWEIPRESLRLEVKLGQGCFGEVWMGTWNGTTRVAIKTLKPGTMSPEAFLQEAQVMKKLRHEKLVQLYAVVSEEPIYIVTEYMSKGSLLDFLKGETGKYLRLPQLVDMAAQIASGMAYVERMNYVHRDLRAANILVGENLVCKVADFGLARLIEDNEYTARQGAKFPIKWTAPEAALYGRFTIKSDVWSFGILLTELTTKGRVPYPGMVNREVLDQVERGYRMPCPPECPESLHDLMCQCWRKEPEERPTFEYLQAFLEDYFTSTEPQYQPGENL
smiles,measurement,setting,value
Clc1cccc(Cl)c1-c1ccc2nc(Nc3ccc(OCCN4CCCC4)cc3)nnc2c1,IC50,[1],30 nM
CCN(CC)CCOc1cccc(Nc2nnc3cc(-c4c(C)cccc4C)cc(C)c3n2)c1,IC50,CT26 [2],2500 nM
Cc1cc2nc(Nc3ccc(S(=O)(=O)NCCN4CCCC4)cc3)nnc2cc1Br,IC50,[1],> 10000 nM
Cc1cccc(C)c1-c1cc(C)c2nc(Nc3ccc(N(CCN4CCCC4)C(=O)c4ccccc4)cc3)nnc2c1,IC50,CT26 [2],2400 nM
same,IC50,[1],16 nM
Cc1cc(-c2c(Cl)cccc2Cl)cc2nnc(Nc3ccc(OCCN4CCCC4)cc3)nc12,IC50,K562,215 nM
same,IC50,Cytochrome P450 3A4,62000 nM
same,AUC,Canis familiaris [3],8680 ng·h/mL
same,bioavailability,[4],42%
same,IC50,Cytochrome P450 1A2,> 100000 nM
same,Tmax,[5],4 h
same,IC50,Cytochrome P450 2C19,12000 nM
same,bioavailability,[6],35%
same,IC50,Cytochrome P450 2C9,> 100000 nM
same,Vdss,Mus musculus [7],16.1 L/kg
same,IC50,CT26 [2],750 nM
same,Tmax,[8],8 h
same,Tmax,[9],8.8 h
same,IC50,Cytochrome P450 2D6,33000 nM
same,IC50,COLO 205,2500 nM
same,Cmax,[10],415 ng/mL
same,IC50,HT-29,> 5000 nM
same,Ki,[11],2090 nM
same,Vdss,Canis familiaris [12],18.7 L/kg
same,AUC,Rattus norvegicus [13],8010 ng·h/mL
same,Vdss,Rattus norvegicus [14],9.4 L/kg
same,half-life,[15],8 h
same,Activity,A549 [16],86%
same,half-life,[17],13 h
same,Cmax,[18],679 ng/mL
same,bioavailability,[19],74%
same,Cmax,[20],348 ng/mL
same,half-life,[21],4.6 h
same,AUC,Mus musculus [22],15300 ng·h/mL
same,IC50,MDA-MB-231,240 nM
same,IC50,MCF7,85 nM
same,CL/F,[23],14.5 mL/min/kg
same,CL/F,[24],12.7 mL/min/kg
same,Activity,CT26 [25],60%
same,IC50,A549 [26],900 nM
same,IC50,MOLT-4,250 nM
same,CL/F,[27],12.7 mL/min/kg
Cc1ccc2nnc(Nc3ccc(S(=O)(=O)NCCN4CCCC4)cc3)nc2c1,IC50,[1],> 10000 nM
Cc1cccc(C)c1-c1cc(C)c2nc(Nc3ccnc(OCCN4CCCC4)c3)nnc2c1,IC50,CT26 [2],2400 nM
COc1cc2c(cc1O)CCN[C@]21CS[C@H]2c3c(OC(C)=O)c(C)c4c(c3[C@@H](COC1=O)N1[C@@H]2[C@H]2c3c(cc(C)c(OC)c3O)C[C@@H]([C@@H]1O)N2C)OCO4,IC50,[1],208 nM
Cc1cnc(F)cc1-c1cc(C)c2nc(Nc3ccc(OCCN4CCCC4)cc3)nnc2c1,IC50,[1],204 nM
Cc1cccc(C)c1-c1cc(C)c2nc(Nc3cccc(N(CCN4CCCC4)C(=O)c4ccccc4)c3)nnc2c1,IC50,[1],18 nM
Cc1ccc(CN)cc1-c1cc(C)c2nc(Nc3ccc(S(=O)(=O)NCCN4CCCC4)cc3)nnc2c1,IC50,[1],353 nM
CNc1cc(-c2c(C)cccc2C)cc2nnc(Nc3ccc(OCCN4CCCC4)cc3)nc12,IC50,[1],10 nM
COc1ccc(Cl)c(-c2cc(C)c3nc(Nc4ccc(OCCN5CCCC5)cc4)nnc3c2)c1,IC50,[1],778 nM
Cc1cccc(C)c1-c1cc(NS(C)(=O)=O)c2nc(Nc3ccc(OCCN4CCCC4)cc3)nnc2c1,IC50,[1],21 nM
CC(=O)Nc1cc(-c2c(C)cccc2C)cc2nnc(Nc3ccc(OCCN4CCCC4)cc3)nc12,IC50,[1],14 nM
Cc1cc2nc(Nc3ccc(S(=O)(=O)NCCN4CCCC4)cc3)nnc2cc1N,IC50,[1],92 nM
Cc1cccc(C)c1-c1cc(C)c2nc(Nc3ccc(C(=O)NN4CCNCC4)cc3)nnc2c1,IC50,[1],13 nM
Cc1cccc(C)c1-c1cc(C)c2nc(Nc3ccc(C(=O)NN4CCN(C)CC4)cc3)nnc2c1,IC50,CT26 [2],6700 nM
same,IC50,[1],15 nM
Cc1cccc(C)c1-c1cc(C)c2nc(Nc3ccc(OCCN4CCN(C)CC4)cc3)nnc2c1,IC50,CT26 [2],6600 nM
Cc1cccc(C)c1-c1cc(N)c2nc(Nc3ccc(OCCN4CCCC4)cc3)nnc2c1,IC50,[1],10 nM
Cc1cccc(C)c1-c1cc(C)c2nc(Nc3ccc(OCCN4CCCC4)cc3)nnc2c1,IC50,Cytochrome P450 3A4,42000 nM
same,AUC,Canis familiaris [3],9680 ng·h/mL
same,bioavailability,[4],68%
same,IC50,Cytochrome P450 1A2,> 100000 nM
same,Tmax,[5],1.5 h
same,IC50,Cytochrome P450 2C19,12000 nM
same,bioavailability,[6],20%
same,IC50,Cytochrome P450 2C9,> 100000 nM
same,Vdss,Mus musculus [7],11.4 L/kg
same,IC50,CT26 [2],2300 nM
same,Tmax,[8],6 h
same,Tmax,[9],6 h
same,IC50,Cytochrome P450 2D6,25000 nM
same,Cmax,[10],790 ng/mL
same,Vdss,Canis familiaris [12],8.6 L/kg
same,AUC,Rattus norvegicus [13],9570 ng·h/mL
same,Vdss,Rattus norvegicus [14],7.2 L/kg
same,half-life,[15],9.5 h
same,half-life,[17],19 h
same,Cmax,[18],5240 ng/mL
same,bioavailability,[19],86%
same,Cmax,[20],419 ng/mL
same,half-life,[21],5.6 h
same,AUC,Mus musculus [22],19100 ng·h/mL
same,CL/F,[23],5.1 mL/min/kg
same,CL/F,[24],18.8 mL/min/kg
same,CL/F,[27],9.2 mL/min/kg
c1ccc2nc(Nc3ccc(OCCN4CCCC4)cc3)nnc2c1,IC50,[1],> 10000 nM
